Biological target: Human immunodeficiency virus type 1 reverse transcriptase (Human immunodeficiency virus 1, UniProt Q72547)
Experiment: Inhibition of HIV1 wild type reverse transcriptase expressed in Escherichia coli BL21 (DE3) using [alpha-32P]dATP after 30 mins by liquid scintillation counting
Conditions: not given

| IC50 | Compound |
| --- | --- |
| > 100 µM | O=C(OC1C=CC(n2ccc(=O)n(C(=O)c3ccccc3)c2=O)C1)c1ccccc1 (racemic) |
| > 100 µM | Cc1cc(=O)n(C(=O)c2ccccc2)c(=O)n1C1C=CC(OC(=O)c2ccccc2)C1 (racemic) |
| > 50 µM | Cc1ccc(Cn2c(=O)ccn(C3C=CC(OC(=O)c4ccccc4)C3)c2=O)c(C)c1 (racemic) |
| > 50 µM | O=C(OC1C=CC(n2ccc(=O)n(Cc3cc(F)cc(F)c3)c2=O)C1)c1ccccc1 (racemic) |

System: Human immunodeficiency virus 1
Experiment: Antiviral activity against HIV1 3B infected in human CEM cells assessed as reduction of giant cell formation after 4 days by microscopic analysis
Assay type: functional, organism-based
Conditions: Human immunodeficiency virus 1, 3B, CCRF-CEM, 96 h

| EC50 | Compound |
| --- | --- |
| > 50 µM | O=C(OC1C=CC(n2ccc(=O)n(C(=O)c3ccccc3)c2=O)C1)c1ccccc1 (racemic) |
| > 50 µM | Cc1cc(=O)n(C(=O)c2ccccc2)c(=O)n1C1C=CC(OC(=O)c2ccccc2)C1 (racemic) |
| > 50 µM | Cc1ccc(Cn2c(=O)ccn(C3C=CC(OC(=O)c4ccccc4)C3)c2=O)c(C)c1 (racemic) |
| > 10 µM | O=C(OC1C=CC(n2ccc(=O)n(Cc3cc(F)cc(F)c3)c2=O)C1)c1ccccc1 (racemic) |

System: not listed separately
Experiment: Cytotoxicity against human CEM cells after 3 days
Assay type: cell-based
Conditions: CEM cells (CCRF-CEM)

| Compound | CC50 at 72 h |
| --- | --- |
| O=C(OC1C=CC(n2ccc(=O)n(C(=O)c3ccccc3)c2=O)C1)c1ccccc1 (racemic) | ≥ 250 µM |
| Cc1cc(=O)n(C(=O)c2ccccc2)c(=O)n1C1C=CC(OC(=O)c2ccccc2)C1 (racemic) | 191 µM |
| Cc1ccc(Cn2c(=O)ccn(C3C=CC(OC(=O)c4ccccc4)C3)c2=O)c(C)c1 (racemic) | 31 µM |
| O=C(OC1C=CC(n2ccc(=O)n(Cc3cc(F)cc(F)c3)c2=O)C1)c1ccccc1 (racemic) | 32 µM |
